Measurements: PubChem BioAssay (NCI)
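Compound exposure: 48 hours, 5 concentrations, 96-well plates. The concentration for full growth arrest is given as TGI.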

Tests used:
Assay in all cases: NCI anticancer screen, dose series, 48 h
[1] = system: 786-0 renal
[2] = system: A498 renal
[3] = system: A549 NSCLC
[4] = system: ACHN renal
[5] = system: BT-549 breast
[6] = system: CAKI-1 renal
[7] = system: CCRF-CEM leukemia
[8] = system: COLO 205 colon
[9] = system: DU-145 prostate
[10] = system: EKVX NSCLC
[11] = system: HCC-2998 colon
[12] = system: HCT-116 colon
[13] = system: HCT-15 colon
[14] = system: HOP-62 NSCLC
[15] = system: HOP-92 NSCLC
[16] = system: HS 578T breast
[17] = system: HT29 colon
[18] = system: IGROV1 ovarian
[19] = system: K-562 leukemia
[20] = system: KM12 colon
[21] = system: LOX IMVI melanoma
[22] = system: M14 melanoma
[23] = system: MCF7 breast
[24] = system: MDA-MB-231 breast
[25] = system: MDA-MB-435
[26] = system: MDA-N
[27] = system: MOLT-4 leukemia
[28] = system: NCI-H226 lung
[29] = system: NCI-H23 lung
[30] = system: NCI-H460 lung
[31] = system: NCI-H522 lung
[32] = system: NCI/ADR-RES ovarian
[33] = system: OVCAR-3 ovarian
[34] = system: OVCAR-5 ovarian
[35] = system: OVCAR-8 ovarian
[36] = system: PC-3 prostate
[37] = system: RPMI-8226 leukemia
[38] = system: RXF 393 renal
[39] = system: SF-268 CNS
[40] = system: SF-295 CNS
[41] = system: SF-539 CNS
[42] = system: SK-MEL-2 melanoma
[43] = system: SK-MEL-28 melanoma
[44] = system: SK-MEL-5 melanoma
[45] = system: SN12C renal
[46] = system: SNB-19 CNS
[47] = system: SNB-75 CNS
[48] = system: SR leukemia
[49] = system: SW-620 colon
[50] = system: T-47D breast
[51] = system: TK-10 renal
[52] = system: UACC-257 melanoma
[53] = system: UACC-62 melanoma
[54] = system: UO-31 renal
[55] = system: MALME-3M melanoma
[56] = system: OVCAR-4 ovarian
[57] = system: SK-OV-3 ovarian
[58] = system: U251 CNS

For `CCc1nc(N)c2nc(-c3ccc(C#N)cc3)oc2n1`, the TGI [1] was over 100 µM, the TGI [2] was over 100 µM and the TGI [3] was over 100 µM. For the same compound, the TGI [4] was over 100 µM, the TGI [5] was over 100 µM and the TGI [6] was over 100 µM. The TGI [7] was over 100 µM, the TGI [8] was over 100 µM and the TGI [9] was over 100 µM. For the same compound, the TGI [10] was over 100 µM, the TGI [11] was over 100 µM and the TGI [12] was over 100 µM. It also gave a TGI [13] of over 100 µM, a TGI [14] of over 100 µM and a TGI [15] of over 100 µM. For the same compound, the TGI [16] was over 100 µM, the TGI [17] was over 100 µM and the TGI [18] was over 100 µM. For the same compound, the TGI [19] was over 100 µM, the TGI [20] was over 100 µM and the TGI [21] was over 100 µM. It also gave a TGI [22] of over 100 µM, a TGI [23] of over 100 µM and a TGI [24] of over 100 µM. It also gave a TGI [25] of over 100 µM, a TGI [26] of over 100 µM and a TGI [27] of over 100 µM. The TGI [28] was over 100 µM, the TGI [29] was over 100 µM and the TGI [30] was over 100 µM. The TGI [31] was over 100 µM, the TGI [32] was over 100 µM and the TGI [33] was over 100 µM. It also gave a TGI [34] of over 100 µM, a TGI [35] of over 100 µM and a TGI [36] of over 100 µM. The TGI [37] was over 100 µM, the TGI [38] was over 100 µM and the TGI [39] was over 100 µM. It also gave a TGI [40] of over 100 µM, a TGI [41] of over 100 µM and a TGI [42] of over 100 µM. The TGI [43] was over 100 µM, the TGI [44] was over 100 µM and the TGI [45] was over 100 µM. It also gave a TGI [46] of over 100 µM, a TGI [47] of over 100 µM and a TGI [48] of over 100 µM. The TGI [49] was over 100 µM, the TGI [50] was over 100 µM and the TGI [51] was over 100 µM. The TGI [52] was over 100 µM, the TGI [53] was over 100 µM and the TGI [54] was over 100 µM.
In the case of `CC1OC(OC2C(O)COC(OC3C(C)OC(OC4C(OC(=O)[C@]56CCC(C)(C)C[C@@H]5C5=CCC7[C@@]8(C)C[C@H](O)[C@H](OC9OC(CO)C(O)C(O)C9O)[C@@](C)(CO)[C@@H]8CC[C@@]7(C)[C@]5(C)CC6)OCC(O)C4O)C(O)C3OC3OCC(O)C(O)C3O)C2O)C(O)C(O)C1O` (some centres undefined), the TGI [1] is reported as 29.2 µM, the TGI [2] is reported as 32.7 µM and the TGI [3] is reported as 28.2 µM. The TGI [4] was 36.1 µM, the TGI [5] was 52.6 µM and the TGI [6] was 26.8 µM. The TGI [7] was 34.9 µM, the TGI [8] was 19.3 µM and the TGI [9] was 36.2 µM. For the same compound, the TGI [10] was 23.8 µM, the TGI [11] was 33.9 µM and the TGI [12] was 38.5 µM. The TGI [13] was 51.4 µM, the TGI [14] was 35.4 µM and the TGI [15] was 44 µM. The TGI [16] was 63.9 µM, the TGI [19] was over 100 µM and the TGI [20] was 72.9 µM. The TGI [21] was 37 µM, the TGI [22] was 23.2 µM and the TGI [55] was 54.7 µM. The TGI [23] was 43.8 µM, the TGI [24] was 31 µM and the TGI [25] was 44.8 µM. For the same compound, the TGI [26] was 35.2 µM, the TGI [27] was 46 µM and the TGI [28] was 46.1 µM. The TGI [29] was 40.8 µM, the TGI [30] was 41.6 µM and the TGI [31] was 62.4 µM. For the same compound, the TGI [32] was 46 µM, the TGI [33] was 37.9 µM and the TGI [56] was 48.8 µM. The TGI [34] was 30.2 µM, the TGI [35] was 37.3 µM and the TGI [36] was 29.5 µM. For the same compound, the TGI [37] was over 100 µM, the TGI [38] was 34.1 µM and the TGI [39] was 47.5 µM. It also gave a TGI [40] of 39.2 µM, a TGI [41] of 36.3 µM and a TGI [42] of 37.9 µM. For the same compound, the TGI [43] was 25.9 µM, the TGI [44] was 36.2 µM and the TGI [57] was 34.7 µM. The TGI [45] was 35 µM, the TGI [46] was 33.7 µM and the TGI [47] was 41.1 µM. It also gave a TGI [48] of 46.1 µM, a TGI [49] of 32.2 µM and a TGI [50] of 44.8 µM. It also gave a TGI [51] of 33 µM, a TGI [58] of 39.1 µM and a TGI [52] of 31.7 µM. For the same compound, the TGI [53] was 41.1 µM and the TGI [54] was 17.6 µM.
`Cc1ncc(CSc2ccccc2N)c(CO)c1O` showed a TGI [1] of over 100 µM, a TGI [2] of over 100 µM and a TGI [3] of over 100 µM. The TGI [4] was over 100 µM, the TGI [5] was over 100 µM and the TGI [6] was over 100 µM. For the same compound, the TGI [8] was over 100 µM, the TGI [9] was over 100 µM and the TGI [10] was over 100 µM. For the same compound, the TGI [12] was over 100 µM, the TGI [13] was over 100 µM and the TGI [14] was over 100 µM. The TGI [15] was over 100 µM, the TGI [16] was over 100 µM and the TGI [17] was over 100 µM. For the same compound, the TGI [18] was over 100 µM, the TGI [19] was over 100 µM and the TGI [20] was over 100 µM. It also gave a TGI [21] of over 100 µM, a TGI [22] of over 100 µM and a TGI [55] of over 100 µM. The TGI [23] was over 100 µM, the TGI [24] was over 100 µM and the TGI [25] was over 100 µM. For the same compound, the TGI [26] was over 100 µM, the TGI [27] was over 100 µM and the TGI [28] was over 100 µM. The TGI [29] was over 100 µM, the TGI [31] was over 100 µM and the TGI [32] was over 100 µM. For the same compound, the TGI [33] was over 100 µM, the TGI [56] was over 100 µM and the TGI [34] was over 100 µM. For the same compound, the TGI [35] was over 100 µM, the TGI [36] was over 100 µM and the TGI [37] was over 100 µM. It also gave a TGI [38] of over 100 µM, a TGI [39] of over 100 µM and a TGI [40] of over 100 µM. It also gave a TGI [41] of over 100 µM, a TGI [42] of over 100 µM and a TGI [43] of over 100 µM. For the same compound, the TGI [44] was over 100 µM, the TGI [57] was over 100 µM and the TGI [45] was over 100 µM. The TGI [46] was over 100 µM, the TGI [47] was over 100 µM and the TGI [48] was over 100 µM. The TGI [49] was over 100 µM, the TGI [50] was over 100 µM and the TGI [51] was over 100 µM. The TGI [58] was over 100 µM, the TGI [52] was over 100 µM and the TGI [53] was over 100 µM.
